Earlier results, collected in patent US9918970B2, “Pharmaceutical composition comprising solifenacin” (Astellas Pharma Inc., priority 2010, dated 2018).

Target: muscarinic M3 receptor (Homo sapiens, UniProt P20309)
Sequence (P20309 whole entry): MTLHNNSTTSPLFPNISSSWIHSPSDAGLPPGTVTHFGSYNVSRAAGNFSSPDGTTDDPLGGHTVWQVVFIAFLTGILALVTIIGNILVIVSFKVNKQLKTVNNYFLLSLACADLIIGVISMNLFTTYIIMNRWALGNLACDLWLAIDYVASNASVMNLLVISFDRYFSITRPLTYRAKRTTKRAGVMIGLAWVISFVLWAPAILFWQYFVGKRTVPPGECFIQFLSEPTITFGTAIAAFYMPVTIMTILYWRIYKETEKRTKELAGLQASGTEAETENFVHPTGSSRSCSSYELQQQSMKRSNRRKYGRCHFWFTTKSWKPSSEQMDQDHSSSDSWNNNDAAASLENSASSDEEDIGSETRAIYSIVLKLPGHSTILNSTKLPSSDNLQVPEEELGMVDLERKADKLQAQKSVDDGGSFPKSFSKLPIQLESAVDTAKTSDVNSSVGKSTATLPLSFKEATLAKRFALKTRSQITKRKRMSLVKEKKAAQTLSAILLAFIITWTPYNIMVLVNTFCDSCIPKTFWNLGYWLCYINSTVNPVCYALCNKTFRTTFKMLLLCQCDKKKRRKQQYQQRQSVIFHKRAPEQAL

- selectivity for the M3 receptor as compared with the M2 receptor (in words) (M3 in smooth muscle, gland tissues, M2 in heart): higher selectivity
Structure (SMILES): O=C(O[C@H]1CN2CCC1CC2)N1CCc2ccccc2[C@@H]1c1ccccc1 [solifenacin, (R)-quinuclidin-3-yl (S)-1-phenyl-1,2,3,4-tetrahydroisoquinoline-2-carboxylate]
- antagonistic activity against muscarinic M3 receptor (in words): excellent selective antagonistic activity
